The values below come from patent US6511997B1, “Aminopyrazole derivatives” (Teikoku Hormone Mfg. Co., Ltd., priority 1998, dated 2003).

By melting point is commonly meant the temperature, or range, at which the solid turns liquid. In the case of `O=C(Cc1ccccc1)Nc1n[nH]c(-c2ccc(F)cc2)c1-c1ccncc1` [Example 1, 5-(4-fluorophenyl)-3-phenylacetylamino-4-(4-pyridyl)pyrazole], the melting point was in the range of 289.2 to 290.4 °C.

In turn, `O=S(=O)(Nc1n[nH]c(-c2ccc(F)cc2)c1-c1ccncc1)c1ccccc1` [Example 139, 5-(4-fluorophenyl)-3-phenylsulfonylamino-4-(4-pyridyl)pyrazole] displayed a melting point of 181 to 183.3 °C.

The compound `Cn1nc(-c2ccc(F)c(Cl)c2)c(-c2ccncc2)c1NC(=O)Cc1c(F)c(F)c(F)c(F)c1F` [Example 114, 3-(3-Chloro-4-fluorophenyl)-1-methyl-5-(2,3,4,5,6-pentafluorophenylacetylamino)4-(4-pyridyl)pyrazole] had a melting point of 194.7 to 196 °C.

For the compound `O=C(Nc1n[nH]c(-c2ccc(F)cc2)c1-c1ccncc1)c1ccccc1` [Example 13, 3-Benzoylamino-5-(4-fluorophenyl)-4-(4-pyridyl)pyrazole], the melting point lay within 270.5 to 276.1 °C.

In the case of `Cn1nc(-c2ccc(F)cc2)c(-c2ccncc2)c1NC(=O)Cc1ccccc1C(F)(F)F` [Example 68, 3-(4-Fluorophenyl)-1-methyl-4-(4-pyridyl)-5-(2-trifluoromethylphenylacetylamino)pyrazole], the melting point lay within 242.7 to 244.5 °C.

Take `O=C(Cc1ccsc1)Nc1n[nH]c(-c2ccc(F)cc2)c1-c1ccncc1` [Example 28, 5-(4-Fluorophenyl)-4-(4-pyridyl)-3-(3-thienylacetylamino)pyrazole]: the melting point was 279.6 to 282.9 °C (dec.).

Consider `CC(C)(C)OC(=O)N1CCC[C@H]1C(=O)Nc1n[nH]c(-c2ccc(F)cc2)c1-c1ccncc1` [Example 88, 3-(N′-Carbo-t-butoxy-L-prolylamino)-5-(4-fluorophenyl)-4-(4-pyridyl)pyrazole], for which the melting point was 124.6 to 125.7 °C.

With `Cn1nc(-c2ccc(F)cc2)c(-c2ccncc2)c1NC(=O)Cc1c(F)ccc([N+](=O)[O-])c1Cl` [Example 83, 5-(2-chloro-6-fluoro-3-nitrophenylacetylamino)-3-(4-fluorophenyl)-1-methyl-4-(4-pyridyl)pyrazole], the melting point was 129.2 to 130.6 °C.

For `O=C(CC1CCCCC1)Nc1n[nH]c(-c2ccc(F)cc2)c1-c1ccncc1` [Example 23, 3-cyclohexylacetylamino-5-(4-fluorophenyl)-4-(4-pyridyl)pyrazole], the melting point is 296.3 to 299.9 °C.

Take `Cn1nc(-c2ccc(F)cc2)c(-c2ccncc2)c1NC(=O)Cc1ccccn1` [Example 76, 3-(4-Fluorophenyl)-1-methyl-4-(4-pyridyl)-5-(2-pyridylacetylamino)pyrazole]: the melting point lay within 148.9 to 149.4 °C.

`CCn1nc(-c2ccc(F)cc2)c(-c2ccncc2)c1NC(=O)Cc1ccccc1Cl` [Example 98, 5-(2-Chlorophenylacetylamino)-1-ethyl-3-(4-fluorophenyl)-4-(4-pyridyl)pyrazole] returned a melting point of 226 to 232.3 °C.

As to `O=C(Cc1cccs1)Nc1n[nH]c(-c2ccc(F)cc2)c1-c1ccncc1` [Example 11, 5-(4-Fluorophenyl)-4-(4-pyridyl)-3-(2-thienylacetylamino)pyrazole], the melting point lay in the range of 264.6 to 268.3 °C.

For `Cn1nc(-c2ccc(F)cc2)c(-c2ccncc2)c1NC(=O)Cc1ccccc1[N+](=O)[O-]` [Example 65, 3-(4-Fluorophenyl)-1-methyl-5-(2-nitrophenylacetylamino)-4-(4-pyridyl)pyrazole], the melting point fell in the range of 240.9 to 242.4 °C.

Regarding `Cn1nc(-c2ccc(F)cc2)c(-c2ccncc2)c1NC(=O)Cc1cc(F)ccc1F` [Example 35, 5-(2,5-difluorophenylacetylamino)-3-(4-fluorophenyl)-1-methyl-4-(4-pyridyl)pyrazole], the melting point fell in the range of 207 to 208 °C.

For `Cn1nc(-c2ccc(F)cc2)c(-c2ccncc2)c1NC(=O)Cc1cccc(C(F)(F)F)c1` [Example 72, 3-(4-Fluorophenyl)-1-methyl-4-(4-pyridyl)-5-(3-trifluoromethylphenylacetylamino)pyrazole], the melting point lay within 193.4 to 195.8 °C.

For the compound `COc1cc(CC(=O)Nc2c(-c3ccncc3)c(-c3ccc(F)cc3)nn2C)cc(OC)c1OC` [Example 54, 3-(4-Fluorophenyl)-1-methyl-4-(4-pyridyl)-5-(3,4,5-trimethoxyphenylacetylamino)pyrazole], the melting point lay within 178.1 to 180.4 °C.

Turning to `O=C(Cc1ccc(C(F)(F)F)cc1)Nc1n[nH]c(-c2ccc(F)cc2)c1-c1ccncc1` [Example 8, 5-(4-Fluorophenyl)-4-(4-pyridyl)-3-(4-trifluoromethylphenylacetylamino)pyrazole], the melting point was in the range of 282.1 to 288.4 °C.

As to `CC(C)(C(=O)Nc1n[nH]c(-c2ccc(F)cc2)c1-c1ccncc1)c1ccccc1` [Example 33, 3-(α,α-Dimethylphenylacetylamino)-5-(4-fluorophenyl)-4-(4-pyridyl)pyrazole], the melting point lay in the range of 239.1 to 241.5 °C.

`Cc1ccc(CC(=O)Nc2n[nH]c(-c3ccc(F)cc3)c2-c2ccncc2)cc1` [Example 7, 5-(4-Fluorophenyl)-3-(4-methylphenylacetylamino)-4-(4-pyridyl)pyrazole] had a melting point of 262.8 to 264.7 °C.

Take `Cn1nc(-c2ccc(F)cc2)c(-c2ccncc2)c1NC(=O)Cc1c(Cl)cccc1Cl` [Example 38, 5-(2,6-Dichlorophenylacetylamino)-3-(4-fluorophenyl)-1-methyl-4-(4-pyridyl)pyrazole]: the melting point lay within 252.5 to 256.7 °C.

As for `CC(C(=O)Nc1c(-c2ccncc2)c(-c2ccc(F)cc2)nn1C)c1ccccc1` (stereo not shown) [Example 73, 3-(4-Fluorophenyl)-1-methyl-5-(2-phenylpropionylamino)-4-(4-pyridyl)pyrazole], the melting point lay within 210 to 214.9 °C.

In turn, `Cn1nc(-c2ccc(F)cc2)c(-c2ccncc2)c1NC(=O)Cc1ccc2c(c1)OCO2` [Example 43, 3-(4-Fluorophenyl)-1-methyl-5-(3,4-methylenedioxyphenylacetylamino)-4-(4-pyridyl)pyrazole] yielded a melting point of 113.6 to 116.5 °C.

`O=C(Cc1ccccc1[N+](=O)[O-])Nc1n[nH]c(-c2ccc(F)cc2)c1-c1ccncc1` [Example 92, 5-(4-fluorophenyl)-3-(2-nitrophenylacetylamino)-4-(4-pyridyl)pyrazole] registered a melting point of 242.4 to 244.1 °C.

The compound `COc1ccc(CC(=O)Nc2c(-c3ccncc3)c(-c3ccc(F)cc3)nn2C)cc1` [Example 64, 3-(4-Fluorophenyl)-5-(4-methoxyphenylacetylamino)-1-methyl-4-(4-pyridyl)pyrazole] returned a melting point of 172.3 to 176 °C.

`Cn1nc(-c2ccc(F)cc2)c(-c2ccncc2)c1NC(=O)Cc1cccc(Br)c1` [Example 58, 5-(3-Bromophenylacetylamino)-3-(4-fluorophenyl)-1-methyl-4-(4-pyridyl)pyrazole] returned a melting point of 78.5 to 80.2 °C.

For the compound `CN(C(=O)Cc1c(Cl)cccc1Cl)c1c(-c2ccncc2)c(-c2ccc(F)cc2)nn1C` [Example 122, 5-[N-(2,6-dichlorophenylacetyl)-N-methylamino]-3-(4-fluorophenyl)-1-methyl-4-(4-pyridyl)pyrazole], the melting point was in the range of 205.7 to 207.8 °C.

`CCC(=O)Nc1n[nH]c(-c2ccc(F)cc2)c1-c1ccncc1` [Example 17, 5-(4-Fluorophenyl)-3-propionylamino-4-(4-pyridyl)pyrazole]: the melting point lay within 272 to 275 °C.

On to `Cn1nc(-c2ccc(F)cc2)c(-c2ccncc2)c1NC(=O)Cc1c(F)cccc1Cl` [Example 36, 5-(2-Chloro-6-fluorophenylacetylamino)-3-(4-fluorophenyl)-1-methyl-4-(4-pyridyl)pyrazole], for which the melting point lay in the range of 216.9 to 224.6 °C.

Turning to `CN(C(=O)Cc1ccccc1)c1nn(C)c(-c2ccc(F)cc2)c1-c1ccncc1` [Example 119, 5-(4-fluorophenyl)-1-methyl-3-(N-methyl-N-phenylacetylamino)-4-(4-pyridyl)pyrazole], the melting point was 169.8 to 171.1 °C.

`CN(C(=O)Cc1ccccn1)c1c(-c2ccncc2)c(-c2ccc(F)cc2)nn1C` [Example 129, 3-(4-Fluorophenyl)-1-methyl-5-[N-methyl-N-(2-pyridylacetyl)amino]-4-(4-pyridyl)pyrazole] came in with a melting point of 144 to 145.2 °C.

In turn, `Cc1ccc(S(=O)(=O)Nc2n[nH]c(-c3ccc(F)cc3)c2-c2ccncc2)cc1` [Example 140, 5-(4-Fluorophenyl)-4-(4-pyridyl)-3-(p-toluenesulfonylamino)pyrazole] registered a melting point of 221.2 to 221.5 °C.

As for `O=C(Cc1ccncc1)Nc1n[nH]c(-c2ccc(F)cc2)c1-c1ccncc1` [Example 29, 5-(4-Fluorophenyl)-4-(4-pyridyl)-3-(4-pyridylacetylamino)pyrazole], the melting point was 248.3 to 251.8 °C (dec.).

As for `COc1ccccc1CC(=O)Nc1c(-c2ccncc2)c(-c2ccc(F)cc2)nn1C` [Example 69, 3-(4-Fluorophenyl)-5-(2-methoxyphenylacetylamino)-1-methyl-4-(4-pyridyl)pyrazole], the melting point was in the range of 206.8 to 209.2 °C.

`Cn1nc(-c2ccc(F)cc2)c(-c2ccncc2)c1NC(=O)Cc1ccccc1Cl` [Example 56, 5-(2-Chlorophenylacetylamino)-3-(4-fluorophenyl)-1-methyl-4-(4-pyridyl)pyrazole] had a melting point of 215.9 to 217.8 °C.

Compound `Cn1nc(-c2ccc(F)cc2)c(-c2ccncc2)c1NC(=O)Cc1ccccc1Br` [Example 57, 5-(2-Bromophenylacetylamino)-3-(4-fluorophenyl)-1-methyl-4-(4-pyridyl)pyrazole] had a melting point of 223.8 to 227.6 °C.

Compound `Cn1nc(-c2ccc(F)cc2)c(-c2ccncc2)c1NC(=O)Cc1ccc(Cl)cc1Cl` [Example 41, 5-(2,4-Dichlorophenylacetylamino)-3-(4-fluorophenyl)-1-methyl-4-(4-pyridyl)pyrazole] gave a melting point of 224.3 to 225.4 °C.

The compound `Cc1ccc(C)c(CC(=O)Nc2c(-c3ccncc3)c(-c3ccc(F)cc3)nn2C)c1` [Example 51, 5-(2,5-Dimethylphenylacetylanino)-3-(4-fluorophenyl)-1-methyl-4-(4-pyridyl)pyrazole] returned a melting point of 179.9 to 185.1 °C.
